US11298422B2, “Treating tumors with TTFields and an aurora kinase inhibitor” (Novocure Limited, priority 2018, dated 2022)

Legend:
Type in all cases: cell-based, human
[1] = tested on: U87-MG; assay: Overall effect (surviving cells x colonies formed vs. control), U87-MG; settings: for overall effect, Observed TTFields + AZD1152 / overall effect, AZD1152: 72 h; for overall effect, Expected: expected value for the combination; for overall effect, AZD1152: surviving cells x colonies vs. control
Method: (§1) The effects of the combined treatment of TTFields and the Aurora B kinase inhibitor AZD1152 was tested in 3 different glioma cell lines: U87-MG, U87-MG^shp53 and U-251. TTFields ([…], 200 kHz) were applied for 72 hours using the Inovitro system. AZD1152 was added to the media in concentrations of up to 100 nmol/L. Cell counts, cell cycle, and clonogenic potential were determined at the end of treatment. Formation of multinuclear cells was determined using microscopic images of cells stained with crystal violet.
(§2) The effects of the combined treatment of TTFields and AZD1152 was tested using the following human glioma cell lines: U87-MG (ATCC), U-251 (ECACC) and U87-mG^shp53 (provided by Dr. Achim Temme). All cells were grown in a humidified incubator supplied with 5% CO2. Cells were maintained in EMEM, supplemented with 10% FBS, 2 mmol/L glutamine, Pen-Strep solution (100 units/ml Penicillin and 0.1 mg/ml Streptomycin), 1 mmol/L sodium pyruvate and 1% NEAA. U87-MG^shp53 cells were maintained under selection with […] geneticin. AZD1152 was obtained from Sigma, Israel.
(§3) TTFields (1.6 V/cm RMS, 200 kHz) were applied for 72 hours using the Inovitro system. At the end of treatment, inhibition of tumor cell growth was analyzed quantitatively based on cell count. Clonogenic survival of U87-MG, U87-MG^shp53 and U-251 was tested by plating triplicates of 300 cells/dish in 6 wells dishes. After 2-3 weeks, cells were stained with crystal violet and the number of clones was quantified. Overall effect was calculated by multiplying the percentage of surviving cells at the end of treatment with the percentage of colonies formed vs. control.

[2] = tested on: U87-MG^shp53; assay: Overall effect (surviving cells x colonies formed vs. control), U87-MG^shp53; settings: for dosage required to achieve an overall effect of 38%: U87-MG^shp53 (FIG. 1D); for overall effect, Observed TTFields + AZD1152 / overall effect, AZD1152: 72 h; for overall effect, Expected: expected value for the combination; for overall effect, AZD1152: surviving cells x colonies vs. control
Method: as §1, §2, §3

[3] = tested on: U87-MG^shp53; assay: Flow cytometry analysis of DNA contents (ploidy), U87-MG^shp53; settings: 72 h
Method: For cell cycle analysis, cells were removed with Trypsin immediately after 72 h treatment, washed twice with ice-cold PBS with 1% FBS and fixed with 70% ice-cold ethanol for 30 min. After fixation, cells were washed twice with ice-cold PBS with 1% FBS, pelleted and incubated in PBS containing 10 μg/ml RNase and 7.5 μg/ml7-AAD (Sigma-Aldrich) at 37° C. for 30 min. Cell cycle distribution was then quantified using the EC800 flow cytometer (Sony Biotechnology, Japan).
FIGS. 3A-D and 4A-E show U87-MG and U87-MG^shp53 FACS analysis of DNA contents following treatment with TTFields and AZD1152. More specifically, FIGS. 3A-D depict increased polyploidy in U87-MG cells following the combined treatment of TTFields (200 kHz, 1.6 V/cm RMS) at various AZD1152 concentrations; and FIGS. 4A-E depict increased polyploidy in U87-MG^shp53 cells following the combined treatment of TTFields (200 kHz, 1.6 V/cm RMS) at various AZD1152 concentrations.
Tables 1 and 2 depict, for U87-MG and U87-MG^shp53 respectively, numeric data corresponding to FIGS. 3 and 4. The columns in tables 1 and 2 represent the DNA copy number (e.g., 2n is the normal number of chromosomes (23 pairs=46), 4n is twice the number of chromosomes, etc.).

[4] = U87-MGShp53, AZD1152 12.5 nM + TTFIELDS 200 kHz 1.6 V/cm RMS
[5] = U87-MGShp53, AZD1152 12.5 nM, CONTROL (no TTFields)
[6] = U87-MGShp53, AZD1152 25 nM + TTFIELDS 200 kHz 1.6 V/cm RMS
[7] = U87-MGShp53, AZD1152 25 nM, CONTROL (no TTFields)
[8] = U87-MGShp53, AZD1152 50 nM + TTFIELDS 200 kHz 1.6 V/cm RMS
[9] = U87-MGShp53, AZD1152 50 nM, CONTROL (no TTFields)

CCN(CCCOc1ccc2c(Nc3cc(CC(=O)Nc4cccc(F)c4)n[nH]3)ncnc2c1)CCOP(=O)(O)O [AZD1152, Barasertib]
overall effect, Observed TTFields + AZD1152 ([1]; AZD1152 25 nM + TTFIELDS 200 kHz 1.6 V/cm RMS): 10.0% | overall effect, Expected ([1]; AZD1152 25 nM + TTFields): 15.0% | overall effect, AZD1152 ([1]; AZD1152 25 nM alone): 31% | overall effect, Observed TTFields + AZD1152 ([1]; AZD1152 50 nM + TTFIELDS 200 kHz 1.6 V/cm RMS): 6.0% | overall effect, Expected ([1]; AZD1152 50 nM + TTFields): 8.0% | overall effect, AZD1152 ([1]; AZD1152 50 nM alone): 16.5% | overall effect, Observed TTFields + AZD1152 ([1]; AZD1152 100 nM + TTFIELDS 200 kHz 1.6 V/cm RMS): 4.0% | overall effect, Expected ([1]; AZD1152 100 nM + TTFields): 2.2% | overall effect, AZD1152 ([1]; AZD1152 100 nM alone): 4.5% | dosage required to achieve an overall effect of 38% ([2]; combined with TTFields): 25 nM | dosage required to achieve an overall effect of 38% ([2]; in the absence of TTFields): 70 nM | overall effect, Observed TTFields + AZD1152 ([2]; U87-MG^shp53, AZD1152 25 nM + TTFields 200 kHz 1.6 V/cm RMS): 39.0% | overall effect, Expected ([2]; U87-MG^shp53, AZD1152 25 nM + TTFields): 51.0% | overall effect, AZD1152 ([2]; U87-MG^shp53, AZD1152 25 nM alone): 79% | overall effect, Observed TTFields + AZD1152 ([2]; U87-MG^shp53, AZD1152 50 nM + TTFields 200 kHz 1.6 V/cm RMS): 13.0% | overall effect, Expected ([2]; U87-MG^shp53, AZD1152 50 nM + TTFields): 33.9% | overall effect, AZD1152 ([2]; U87-MG^shp53, AZD1152 50 nM alone): 52.5% | overall effect, Observed TTFields + AZD1152 ([2]; U87-MG^shp53, AZD1152 100 nM + TTFields 200 kHz 1.6 V/cm RMS): 2.5% | overall effect, Expected ([2]; U87-MG^shp53, AZD1152 100 nM + TTFields): 7.1% | overall effect, AZD1152 ([2]; U87-MG^shp53, AZD1152 100 nM alone): 11% | reduction of dosage required for a given level of overall effect when combined with TTFields ([2]; with respect to the dosage giving the same overall effect in the absence of an alternating electric field, 'can often be'): at least 50% | DNA copy number 2n [3, 4]: 44% | DNA copy number 4n [3, 4]: 34% | DNA copy number 8n [3, 4]: 19% | DNA copy number 2n [3, 5]: 46% | DNA copy number 4n [3, 5]: 29% | DNA copy number 8n [3, 5]: 6% | DNA copy number 16n [3, 5]: 1% | DNA copy number 32n [3, 5]: 0% | DNA copy number 2n [3, 6]: 10% | DNA copy number 4n [3, 6]: 36% | DNA copy number 8n [3, 6]: 29% | DNA copy number 2n [3, 7]: 48% | DNA copy number 4n [3, 7]: 25% | DNA copy number 8n [3, 7]: 6% | DNA copy number 16n [3, 7]: 1% | DNA copy number 32n [3, 7]: 0% | DNA copy number 2n [3, 8]: 2% | DNA copy number 4n [3, 8]: 21% | DNA copy number 8n [3, 8]: 38% | DNA copy number 2n [3, 9]: 40% | DNA copy number 4n [3, 9]: 33% | DNA copy number 8n [3, 9]: 11% | DNA copy number 16n [3, 9]: 3% | DNA copy number 32n [3, 9]: 0%
